Experimental data from patent US20040001822A1, “Y1-isolated molecules comprising epitopes containing sulfated moieties, antibodies to such epitopes, and uses thereof” (priority 2000, published 2004).
Starred links: 1 amine or outer side, 2 acyl side, 3 side chain; linkers in the order of their positions; H or OH if unused. Primed or numbered codes have the meaning given here. No end group written: not given here. *: point of attachment. SO3H = sulfated tyrosine (Y*), O=S(=O)(O)[*:2]; SO3H″ = O=S(=O)(O)*

Legend:
[1] = test system: Y1 Binding to Glycocalicin; assay: ELISA: effect of synthetic GPIbα peptides on Y1 binding to purified glycocalicin; design: species or system human; settings: 0.25 μg/well Y1
Description: ELISA assays were developed to evaluate the effect of the GPIb derived synthetic peptides on the binding of Y1 to purified glycocalicin. In addition, FACS analysis using washed platelets was carried out. To evaluate the importance of sulfated tyrosine within the Y1 binding site of GPIb, a competitive binding FACS analysis was used. Y1-scFv at a concentration of 1 μg was preincubated with different peptides at concentrations of 2.5 and 200 μM. After a preincubation for 30 minutes at room temperature the mixture was added to a tube containing ˜10^7 washed platelets and the binding of Y1 to the washed platelets was assessed using polyclonal rabbit anti-scFv-PE. The inhibitory effect of the peptides compared to control binding (Y1 alone) was evaluated by measuring the residual binding of Y1 to washed platelets. The peptides and the results are described in Table 1 and are similar to results that were observed using the same peptides in an ELISA assay (Table B). In both assays, a control level of Y1 binding was determined, as follows. A polystyrene microtiter maxisorb plate was coated with (a) purified glycocalicin or (b) washed platelets. […] The plate was then incubated with rabbit anti-scFv followed by addition of anti rabbit-HRP (horse radish peroxidase) and HRP substrate. The level of anti rabbit-HRP binding was measured by the intensity of the color produced, and the level of anti rabbit-HRP binding correlates with the level of binding of anti Y1-scFv and the level of binding of Y1. The optical density was measured at A405. Each sample was assayed in duplicate, and the average was calculated.
The effect of synthetic GPIbα peptides on Y1 binding to purified glycocalicin was evaluated by mixing varying concentrations of the peptides with a constant amount of Y1. After a preincubation for 30 minutes at room temperature, the mixture was added to a polystyrene microtiter maxisorb plate coated with purified glycocalicin, as described for evaluation of Y1 binding in the absence of peptides. The inhibitory effect of the peptides was evaluated by measuring the residual binding of Y1 to glycocalicin using rabbit anti Y1 scFv and anti rabbit-HRP antibodies, as described for evaluation of Y1 binding in the absence of peptides. This study was performed with four peptides representing various subsets of the sequence 268 to 285 and a control peptide. Each peptide was tested at different concentrations: 200 μM, 25 μM, 2.5 μM, and 0.5 μM.

washed platelets = assay: Competitive FACS: effect of synthetic GPIbα peptides on Y1 binding to washed platelets; design: species or system human
Description: ELISA assays were developed to evaluate the effect of the GPIb derived synthetic peptides on the binding of Y1 to purified glycocalicin. In addition, FACS analysis using washed platelets was carried out. To evaluate the importance of sulfated tyrosine within the Y1 binding site of GPIb, a competitive binding FACS analysis was used. Y1-scFv at a concentration of 1 μg was preincubated with different peptides at concentrations of 2.5 and 200 μM. After a preincubation for 30 minutes at room temperature the mixture was added to a tube containing ˜10^7 washed platelets and the binding of Y1 to the washed platelets was assessed using polyclonal rabbit anti-scFv-PE. The inhibitory effect of the peptides compared to control binding (Y1 alone) was evaluated by measuring the residual binding of Y1 to washed platelets. The peptides and the results are described in Table 1 and are similar to results that were observed using the same peptides in an ELISA assay (Table B). In both assays, a control level of Y1 binding was determined, as follows. A polystyrene microtiter maxisorb plate was coated with (a) purified glycocalicin or (b) washed platelets. After extensive washing, 0.5 μg/well of Y1 was added. The plate was then incubated with rabbit anti-scFv followed by addition of anti rabbit-HRP (horse radish peroxidase) and HRP substrate. The level of anti rabbit-HRP binding was measured by the intensity of the color produced, and the level of anti rabbit-HRP binding correlates with the level of binding of anti Y1-scFv and the level of binding of Y1. The optical density was measured at A405. Each sample was assayed in duplicate, and the average was calculated.

[2] = test system: scFv Y1 binding to glycocalicin; assay: Competitive binding ELISA of sulfated peptides to Y1; design: species or system human; settings: for Inhibition of Y1 binding to glycocalicin by peptide: peptide preincubated with scFv Y1 at 1, 10 and 100 μM
Description: A competitive binding ELISA assay was used to assess the importance of position of sulfated tyrosines to the binding of peptides to Y1.
Glycocalicin was immobilized on a Maxisorb plate. scFv Y1 was preincubated with a peptide of interest for 10 minutes at three different concentrations (1, 10 and 100 μM) in order to observe a dose response. (Table 12). After preincubation, the mixture (Y1+peptide) was added to the plate, and binding of scFv Y1 was assessed using polyclonal rabbit anti-VL, which recognizes the VL chain of scFv Y1, followed by anti-rabbit-HRP. In mixtures in which the peptide bound to scFv Y1, a decrease in the binding of scFv Y1 to glycocalicin compared to control binding was observed.

KG-1 cells = assay: AML KG-1 model in NOD/SCID mice; format: in vivo; settings: for percentage of KG-1 cells in bone marrow compared to untreated group 2: Doxorubicin 0.1 mg/kg 3 times per week, CONY1-Doxorubicin 75 μg/mouse 3 times per week, Mylotarg 0.2 mg/kg 1 time per week
Description: The in vivo mouse model for human AML uses SCID/NOD mice (Jackson Laboratories) inoculated with KG-1 cells derived from a human AML cell line.
In a first experiment, NOD/SCID mice were pretreated with 100 mg/kg CYTOXAN®. Four days post CYTOXAN® injection, KG-1 cells were injected intravenously into the tail vein of six groups of mice. (Table N, Groups 2 and 5-9). One group of mice (Table N, Group 1) was injected with PBS alone (control).
Beginning 19 days post KG-1 injection mice were treated with: CONY1, Doxorubicin, CONY1-Doxorubicin conjugate, or Mylotarg®. (Mylotarg® is a monoclonal antibody (anti CD33) conjugated chemically to calcheamicin recently approved by the FDA for treatment of AML patients age 60 and over in a first relapse.) Mice were treated once or three times per week for three weeks. One group (group 2) of KG-1 inoculated mice were left untreated. (Table N). Two other groups of mice (groups 3 and 4) were injected with KG-1 cells that were previously incubated with CONY1 or 181-scFv (a negative, non-specific control antibody) in serum free RPMI containing 1% BSA at 4° C. for 1 h. The antibodies were used at a concentration of 0.25 mg scFv/l 10^8 cells (75 μg/mouse). Before injection into the mice the preincubated KG-1 cells were washed and resuspended in RPMI. The KG-1 cells in RPMI were inoculated into mice at a concentration of 75 μg scFv/0.2 ml RPMI per mouse. Group 3 mice were inoculated with KG-1+CONY1, and group4 mice were inoculated with KG-1+181-scFv. (Table N). This treatment (group 3 and 4) was carried out one day after the inoculation of groups 1-2 and 5-9, i.e., at five days after CYTOXAN injection.
Mice were sacrificed from 60 to 65 days post cell injection. Bone marrow samples were analyzed by flow cytometry using mouse anti human CD34-FITC (IQP 144F) (or anti CD44-FITC (MCA89F, Serotec)) and Y1-Biotin/SAV-PE. Mouse IgG1-FITC (IQP 191-F) was used as an isotype control, and mouse IgG2a-FITC (MCA929F, Serotec) was used as a negative control. Flow cytometry was performed using FACSCalibur system and CellQwest software, Becton Dickinson.
An additional experiment was performed in which SCID-NOD mice were i.v. injected with 3×10^4 MOLT-4 cells/mouse 5 days post treatment with cyclophosphamide. Anti-cancer agents or PBS were injected IV three times/week, from day 14 onward. On day 60, blood was drawn, then the animals were sacrificed. Bone marrow was extracted and analyzed by FACS analysis using a commercially available antiCD44 antibody for the detection of MOLT-4 cells in the mice bone marrow cell population.

scFv Y1 binding to glycocalicin, sequence (as listed by the source): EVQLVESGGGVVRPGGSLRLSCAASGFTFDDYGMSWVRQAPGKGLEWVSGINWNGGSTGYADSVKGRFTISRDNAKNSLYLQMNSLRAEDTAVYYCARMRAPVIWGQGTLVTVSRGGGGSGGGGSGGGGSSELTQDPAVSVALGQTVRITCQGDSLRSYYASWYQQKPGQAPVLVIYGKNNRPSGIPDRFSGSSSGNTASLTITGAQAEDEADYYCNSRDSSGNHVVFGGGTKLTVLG
Y1 Binding to Glycocalicin, sequence (as listed by the source): as above

| Molecule | Residual Binding of Y1 (% of baseline) ([1]; peptide 2.5 μM) | Residual Binding of Y1 (% of baseline) ([1]; peptide 25 μM) | Residual Binding of Y1 (% of baseline) (Geo Mean) (washed platelets; peptide 2.5 μM) | Residual Binding of Y1 (% of baseline) ([1]; peptide 0.5 μM) | Residual Binding of Y1 (% of baseline) (Geo Mean) (washed platelets; peptide 200 μM) | Inhibition of Y1 binding to glycocalicin by peptide [2] | other results |
| --- | --- | --- | --- | --- | --- | --- | --- |
| REEGRQHFFLLEGRSSYS [negative control peptide, reference compound] | 100 % of baseline | 89 % of baseline | 96 % of baseline | – | – | – | Residual Binding of Y1 (% of baseline) ([1]; peptide 200 μM): 85 % of baseline |
| GDEGDTDLY*DY*Y*P (GDEGDTDLYDYYP; not fully specified (residues 9, 11, 12); printed as GDEGDTDLY*DY*Y*P) [P-3-S, residues 268-280 of GPIbα] | 67 % of baseline | 21 % of baseline | 82 % of baseline | 80 % of baseline | 26 % of baseline | – | – |
| GDEGDTDLYDYYPEEDTE [P-1, residues 268-285 of GPIbα, non-sulfated] | 94 % of baseline | 71 % of baseline | – | 88 % of baseline | 87 % of baseline | – | Residual Binding of Y1 (% of baseline) ([1]; peptide 200 μM): 61 % of baseline |
| QATEY*EYLDYDFLPETE (QATEY(SO3H)EYLDYDFLPETE) [P-Y*YY, PSGL-1 n-terminus peptide, sulfated] | – | – | – | – | – | inhibited Y1 binding to glycocalicin | peptide concentration at which binding is inhibited efficiently ([2]; competitive ELISA, scFv Y1 on glycocalicin): 100 µM |
| QATEYEY*LDY*DFLPETE (QATEYEY(SO3H″)LDY(SO3H″)DFLPETE) [P-YY* Y*, PSGL-1 n-terminus peptide, sulfated] | – | – | – | – | – | best inhibitors | – |
| TDLY*DY*Y*PEEDTE (TDLYDYYPEEDTE; not fully specified (residues 4, 6, 7); printed as TDLY*DY*Y*PEEDTE) [P-2-S, residues 273-285 of GPIbα] | 52 % of baseline | 15 % of baseline | 61 % of baseline | 78 % of baseline | 7 % of baseline | – | – |
| QATEY*EYLDY*DFLPETE (QATEY(SO3H)EYLDY(SO3H)DFLPETE) [P-Y*Y Y*, PSGL-1 n-terminus peptide, sulfated] | – | – | – | – | – | inhibited Y1 binding to glycocalicin | – |
| QATEYEY*LDYDFLPETE (QATEYEY(SO3H)LDYDFLPETE) [P-YY*Y, PSGL-1 n-terminus peptide, sulfated] | – | – | – | – | – | inhibited Y1 binding to glycocalicin | – |
| Mylotarg: monoclonal antibody (anti CD33) conjugated chemically to calcheamicin | – | – | – | – | – | – | prevalence of cancer cells in the bone marrow (KG-1 cells; additional experiment, day 60, CONY1 scFv 75 μg/mouse three times/week, Mylotarg 7 μg/mouse once a week): completely inhibited; percentage of KG-1 cells in bone marrow compared to untreated group 2 (KG-1 cells; first experiment): free of KG 1 cells |
| QATEY*EY*LDYDFLPETE (QATEY(SO3H)EY(SO3H)LDYDFLPETE) [P-Y* Y*Y, PSGL-1 n-terminus peptide, sulfated] | – | – | – | – | – | inhibited Y1 binding to glycocalicin | – |
| COc1cccc2c1C(=O)c1c(O)c3c(c(O)c1C2=O)C[C@@](O)(C(=O)CO)C[C@@H]3O[C@H]1C[C@H](N)[C@H](O)[C@H](C)O1 [Doxorubicin] | – | – | – | – | – | – | reduction in the number of tumor cells in the bone marrow (KG-1 cells; additional experiment, day 60): 50%; mice that died within three weeks after treatment initiation (KG-1 cells; first experiment, group 7, 5 mg/kg, 1 time per week): Nine out of 10; percentage of KG-1 cells in bone marrow compared to untreated group 2 (KG-1 cells; first experiment): statistically significant (p<0.05) lower percentage |
| GDEGDTDLY*DY*Y*PEEDTE (GDEGDTDLYDYYPEEDTE; not fully specified (residues 9, 11, 12); printed as GDEGDTDLY*DY*Y*PEEDTE) [P-1-S, residues 268-285 of GPIbα, Y* sulfated tyrosine] | 62 % of baseline | 25 % of baseline | 41 % of baseline | 89 % of baseline | 5 % of baseline | did inhibit the binding | Residual Binding of Y1 (% of baseline) ([1]; peptide 200 μM): 0 % of baseline |
